The values below are quoted from earlier work in patent publication US20140057987A1, “Disinfectant Spray with Indicator” (GENESIS LABORATORIES, INC., priority 2010, published 2014).

Like-named read-outs stand apart in the source and are kept apart here.

As to `O=C(O)c1cc(N=Nc2ccc([N+](=O)[O-])cc2)ccc1O` [Alizarine Yellow R], the “Transition pH range” value (colour change of indicator) is 10.2-12.0 pH.

Take `Cc1c(C2(c3cc(Br)c(O)c(Br)c3C)OS(=O)(=O)c3ccccc32)cc(Br)c(O)c1Br` [Bromocresol green]: under “colour change of indicator”, the “Transition pH range” value is on record as 3.8-5.4 pH.

`Cc1cc(C2(c3cc(C)c(O)c(Br)c3)OS(=O)(=O)c3ccccc32)cc(Br)c1O` [Bromocresol purple]: the “Transition pH range” value (colour change of indicator) is on record as 5.2-6.8 pH.

With `O=S1(=O)OC(c2cc(Br)c(O)c(Br)c2)(c2cc(Br)c(O)c(Br)c2)c2ccccc21` [Bromophenol blue], where the note is “colour change of indicator”, the “Transition pH range” value was 3.0-4.6 pH.

`Cc1c(C2(c3cc(C(C)C)c(O)c(Br)c3C)OS(=O)(=O)c3ccccc32)cc(C(C)C)c(O)c1Br` [Bromothymol blue]: the “Transition pH range” value (colour change of indicator) is 6.0-7.6 pH.

As for `Nc1c(/N=N/c2ccc(-c3ccc(/N=N/c4cc(S(=O)(=O)O)c5ccccc5c4N)cc3)cc2)cc(S(=O)(=O)O)c2ccccc12` [Congo red], under “colour change of indicator”, the “Transition pH range” value is on record as 3.0-5.0 pH.

In the case of `Cc1cc(C2(c3ccc(O)c(C)c3)OS(=O)(=O)c3ccccc32)ccc1O` [Cresol Red], for the setting “colour change of indicator”, the “Transition pH range” value is given as 7.2-8.8 pH.

Consider `CN(C)c1ccc(C(=C2C=CC(=[N+](C)C)C=C2)c2ccc(N(C)C)cc2)cc1` [Gentian violet(Methyl violet 10B), Gentian violet], for which the “Transition pH range” value (colour change of indicator) was 0.0-2.0 pH.

For `CN(C)c1ccc(C(c2ccccc2)c2ccc(N(C)C)cc2)cc1` [Leucomalachite green], the “Transition pH range” value by setting is: (first transition) 0.0-2.0 pH; (second transition) 11.6-14.0 pH.

For `CN(C)c1ccc(N=Nc2ccc(S(=O)(=O)[O-])cc2)cc1.[Na+]` [Methyl orange], under “colour change of indicator”, the “Transition pH range” value is listed as 3.1-4.4 pH.

As for `CN(C)c1ccc(/N=N/c2ccccc2C(=O)O)cc1` [Methyl red], the “Transition pH range” value reads like this: (colour change of indicator, high pH color green) 4.5-5.2 pH; (colour change of indicator, high pH color yellow) 4.4-6.2 pH.

As to `CN(C)c1ccc(N=Nc2ccccc2)cc1` [Methyl yellow], under “colour change of indicator”, the “Transition pH range” value is given as 2.9-4.0 pH.

On to `O=C1OC(c2ccc(O)c3ccccc23)(c2ccc(O)c3ccccc23)c2ccccc21` [Naphtholphthalein], for which the “Transition pH range” value (colour change of indicator) was 7.3-8.7 pH.

As to `Cc1cc2nc3ccc(N(C)C)cc3nc2cc1N.Cl` [Neutral red], the “Transition pH range” value (colour change of indicator) is on record as 6.8-8.0 pH.

Consider `O=C1OC(c2ccc(O)cc2)(c2ccc(O)cc2)c2ccccc21` [Phenolphthalein], for which the “Transition pH range” value (colour change of indicator) was 8.3-10.0 pH.

Turning to `Cc1cc(O)c(C(C)C)cc1C1(c2cc(C(C)C)c(O)cc2C)OS(=O)(=O)c2ccccc21` [Thymol blue], the “Transition pH range” value is reported as 1.2-2.8 pH (first transition) and 8.0-9.6 pH (second transition).

`Cc1cc(O)c(C(C)C)cc1C1(c2cc(C(C)C)c(O)cc2C)OC(=O)c2ccccc21` [Thymolphthalein]: where the note is “colour change of indicator”, the “Transition pH range” value is on record as 9.3-10.5 pH.

Consider Azolitmin, for which the “Transition pH range” value (colour change of indicator) is on record as 4.5-8.3 pH.
